Measured values reported in PMC9217967, “Simultaneous production and sustainable eutectic mixture based purification of narringinase with Bacillus amyloliquefaciens by valorization of tofu wastewater” (Scientific Reports, 2022).

Test system: T1, naringinase
T1 construct: native enzyme from culture, NADES extractive fermentation, Sephadex G-15 and DEAE-Sepharose; a beta-glucosidase activity (prunin to naringenin) may be included
Assay: Lineweaver-Burk; modified Davis assay, residual naringin at […] nm
Assay type: biochemical, Bacillus amyloliquefaciens
Conditions: general assay: acetate buffer pH 4.2, 333 K, 60 min; printed unit is not a concentration; printed kcat/Km fits 1.5 × 10^-3 M

Km: 1500 µM
SMILES: C[C@@H]1O[C@@H](O[C@H]2[C@H](Oc3cc(O)c4c(c3)O[C@H](c3ccc(O)cc3)CC4=O)O[C@H](CO)[C@@H](O)[C@@H]2O)[C@H](O)[C@H](O)[C@H]1O [Naringin]
